Test results reported in US4293694A, “Pyrido[3,2,1-jk]carbazols” (Otsuka Pharmaceutical Co., Ltd., priority 1979, dated 1981).
Converted amounts (≈) assume the structure as drawn. Read-outs that look alike come from different tables or passages of the source.

Assays:
Candida albicans KYU = experiment: Antimicrobial activity, serial dilution method on agar plate; type: cell-based; settings: read-out: Minimum Inhibitory Concentration (MIC)
[1] = system: Enterbactor aerogenes IFO 12979; experiment: as above; type: cell-based; settings: read-out: Minimum Inhibitory Concentration (MIC)
[2] = system: Bacillus cereus ATCC 11778; experiment: as above; type: cell-based; settings: ATCC11778, read-out: Minimum Inhibitory Concentration (MIC)
Proteus mirabilis 1287 = experiment: as above; type: cell-based; settings: read-out: Minimum Inhibitory Concentration (MIC)
[3] = system: Klebsiella pneumoniae ST-101; experiment: as above; type: cell-based; settings: ST101, read-out: Minimum Inhibitory Concentration (MIC)
Sarcina lutea ATCC 9341 = experiment: as above; type: cell-based; settings: Micrococcus luteus, ATCC9341, read-out: Minimum Inhibitory Concentration (MIC)
Bacillus anthracis = experiment: microbe, parasite or virus in culture; type: cell-based; settings: read-out: Minimum Inhibitory Concentration (MIC)
[4] = system: Micrococcus flavus ATCC 10240a; experiment: Antimicrobial activity, serial dilution method on agar plate; type: cell-based; settings: ATCC10240A, read-out: Minimum Inhibitory Concentration (MIC)
[5] = system: Bacillus subtilis ATCC 6633; experiment: as above; type: cell-based; settings: ATCC6633, read-out: Minimum Inhibitory Concentration (MIC)
[6] = system: Salmonella typhimurium kh; experiment: as above; type: cell-based; settings: Salmonella enterica, read-out: Minimum Inhibitory Concentration (MIC)
Esherichia coli NIHJ = experiment: as above; type: cell-based; settings: read-out: Minimum Inhibitory Concentration (MIC)
Enterbactor cloacae 2 = experiment: as above; type: cell-based; settings: read-out: Minimum Inhibitory Concentration (MIC)
[7] = system: Esherichia coli NIHJ JC-2; experiment: as above; type: cell-based; settings: read-out: Minimum Inhibitory Concentration (MIC)
[8] = system: Streptococcus faecalis IFO 12580; experiment: as above; type: cell-based; settings: Enterococcus faecalis, IFO12580, read-out: Minimum Inhibitory Concentration (MIC)
[9] = system: Pseudomonas aeruginosa ATCC 10145; experiment: as above; type: cell-based; settings: ATCC10145, read-out: Minimum Inhibitory Concentration (MIC)
[10] = system: Serratia marcescens ATCC 14756; experiment: as above; type: cell-based; settings: ATCC14756, read-out: Minimum Inhibitory Concentration (MIC)
Acute toxicity = settings: rat, in vivo, rats, dd strain, 18 to 22 g, fasted 12 hours
Procedure: Further, the acute toxicity of the compounds of the present invention having the formula (I) was determined by intravenous administration (i.v.) and oral administration (p.o.) in 5 to 6 groups of rats (dd strain; body weight, 18 to 22 g; 10 rats in each group) which had been fasted for 12 hours prior to the test.

[11] = system: Staphyrococcus aureus Newmann; experiment: Antimicrobial activity, serial dilution method on agar plate; type: cell-based; settings: read-out: Minimum Inhibitory Concentration (MIC)
[12] = system: Staphyrococcus aureus FDA 209p; experiment: as above; type: cell-based; settings: read-out: Minimum Inhibitory Concentration (MIC)
Streptomyces viridans = experiment: as above; type: cell-based; settings: read-out: Minimum Inhibitory Concentration (MIC)
[13] = iv, read-out: LD50 (50% lethal dose), i.v.
[14] = po, read-out: LD50 (50% lethal dose), p.o.

Compound | MIC (Candida albicans KYU) | MIC [1] | MIC [2] | MIC (Proteus mirabilis 1287) | MIC [3] | MIC (Sarcina lutea ATCC 9341) | MIC (Bacillus anthracis) | MIC [4] | MIC [5] | MIC [6] | MIC (Esherichia coli NIHJ) | MIC (Enterbactor cloacae 2) | MIC [7] | MIC [8] | MIC [9] | MIC [10] | LD50 (Acute toxicity; [13]) | LD50 (Acute toxicity; [14]) | MIC [11] | MIC [12] | also measured
O=C(NN=Cc1ccc([N+](=O)[O-])o1)c1cn2c3c(cc(F)cc3c1=O)C1CCCCC12 (stereo not drawn) [Compound 11] | > 500 µg/mL | 6.3 µg/mL (≈ 14.8 µM) | 12.5 µg/mL (≈ 29.5 µM) | 12.5 µg/mL (≈ 29.5 µM) | 6.3 µg/mL (≈ 14.8 µM) | 100 µg/mL (≈ 236 µM) | 6.3 µg/mL (≈ 14.8 µM) | 100 µg/mL (≈ 236 µM) | 3.2 µg/mL (≈ 7.54 µM) | 12.5 µg/mL (≈ 29.5 µM) | 12.5 µg/mL (≈ 29.5 µM) | 6.3 µg/mL (≈ 14.8 µM) | 12.5 µg/mL (≈ 29.5 µM) | > 100 µg/mL | > 100 µg/mL | 12.5 µg/mL (≈ 29.5 µM) | 180 mg/kg | 3000 mg/kg | 12.5 µg/mL (≈ 29.5 µM) | 12.5 µg/mL (≈ 29.5 µM) | MIC (Streptomyces viridans): > 100 µg/mL
CC1CCN(CCOC(=O)c2cn3c4c(cc(F)cc4c2=O)C2CCCCC23)CC1 (stereo not drawn) [Compound 12] | > 500 µg/mL | 6.3 µg/mL (≈ 15.3 µM) | 6.3 µg/mL (≈ 15.3 µM) | 12.5 µg/mL (≈ 30.3 µM) | 6.3 µg/mL (≈ 15.3 µM) | 50 µg/mL (≈ 121 µM) | 6.3 µg/mL (≈ 15.3 µM) | 50 µg/mL (≈ 121 µM) | 3.2 µg/mL (≈ 7.76 µM) | 12.5 µg/mL (≈ 30.3 µM) | 6.3 µg/mL (≈ 15.3 µM) | 6.3 µg/mL (≈ 15.3 µM) | 6.3 µg/mL (≈ 15.3 µM) | 50 µg/mL (≈ 121 µM) | > 100 µg/mL | 12.5 µg/mL (≈ 30.3 µM) | 130 mg/kg | 2000 mg/kg | 6.3 µg/mL (≈ 15.3 µM) | 6.3 µg/mL (≈ 15.3 µM) | MIC (Streptomyces viridans): 100 µg/mL (≈ 242 µM)
